{"source": "patent US5628328A", "about": "“Method for measuring muscle mass” (priority 1995, dated 1997)", "key": {"[1]": {"set-up": "species or system human", "settings": "in vivo", "protocol": "Each study was four days in duration. Starting at t=0 (8.00 hours), subjects were administered a bolus infusion of L-3-[methyl^2 H3 ]-histidine (D3 -3-methylhistidine) at 0.13 μmol/kg into the forearm vein of the dominant arm. The infusate was passed through a Millex-GS sterilizing filter (0.22 μm; Millipore Products Divisions, Bedford, Mass.) before the infusion. Blood samples were obtained from the superficial hand vein and from the deep forearm vein at 0, 1, 2, 5, 10, 15, 30, 45, 90, 150, 210, 270, 330, and 720 min. postinjection. During this time, the subjects were required to stay at the Clinical Research Center, although they were allowed to ambulate freely within their rooms. Free access to food and drink was allowed after the 330-min sample. After 720 min, the catheters were removed and the patients were allowed to go home. For the following three days, the subjects returned to the CRC each morning before eating for further blood sampling by percutaneous venous puncture at 1,440, 2,880, and 4,320 min postinjection. Urine was collected over 24 hour periods the day before and for three days after tracer infusion.\nBlood was collected in heparinized syringes, transferred to tubes containing Na2 EDTA (15 mg/tube), and centrifuged. The plasma obtained was immediately placed on ice. An aliquot of the plasma was processed for determination of 3-methylhistidine concentration as well as the L-3-[methyl-^2 H3 ]-histidine:3-methylhistidine isotope enrichment. The remainder of the plasma was frozen at -70° C. […] Urinary 3-methylhistidine concentration and production were also measured (Rathmacher, J. A. et al., \"Gas chromatographic-mass spectrometric analysis of stable isotopes of 3-methylhistidine in biological fluids: application to plasma kinetics in vivo,\" Biol. Mass Spectrom. (1992) 21:560-566). […]"}, "[2]": {"set-up": "species or system cattle", "settings": "bovine, in vivo", "protocol": "A minimal model using 4-5 measurements and one compartment rather than three was evaluated. In the minimal model the three pools of the 3-compartment model were combined to form one homogeneous pool of 3-methylhistidine, characterized by a de novo production into the body pool and one exit from the model. The kinetic data between 720 and 4320 min was used for the analysis; this time frame corresponds to apparent linear steady state portion of the decay curve. The limitation of the 1-compartment model is the lost ability to described the entire metabolism of 3-methylhistidine. Only the rate of proteolysis and a total pool size can be estimated. […] (Rathmacher, J. et al., \"The use of compartmental models of 3-methylhistidine flux to evaluate skeletal muscle protein turnover in implanted steers,\" J. Anim. Sci. (1993) 71:135.) However, in cattle the minimal model estimates of 3-methylhistidine production were 30% higher, but the estimates of 3-methylhistidine production were highly correlated (r=0.93, P 0.0001)."}, "[3]": {"settings": "cattle, cited from earlier work"}, "[4]": {"settings": "sheep, cited from earlier work"}, "[5]": {"settings": "dogs, cited from earlier work"}, "[6]": {"settings": "cattle; cited from earlier work"}, "[7]": {"settings": "sheep, cited from earlier work", "remark": "listed apart in the source"}, "[8]": {"settings": "cited from earlier work"}, "[9]": {"settings": "rabbit; cited from earlier work"}, "[10]": {"settings": "cited from earlier work", "remark": "listed apart in the source"}, "[11]": {"settings": "adult rat, Millward et al. 1980"}}, "note": "Like-named read-outs stand apart in the source and are kept apart here."}
{"smiles": "Cn1cnc(C[C@H](N)C(=O)O)c1", "note": "[3-methylhistidine]", "values": [{"measurement": "Model 3-methylhistidine production above urinary estimate", "setting": "[1]", "result": 16, "unit": "%"}, {"measurement": "Model 3-methylhistidine production versus urinary production", "setting": "[1]", "result": "qualitatively similar"}, {"measurement": "Urinary 3-methylhistidine production versus model estimate", "setting": "[1]", "result": "lower than the model estimate"}, {"measurement": "3-methylhistidine production, minimal model above 3-compartment model", "setting": "[2]", "result": 30, "unit": "%"}, {"measurement": "L2,1 fractional transfer rate", "setting": "[3]; comparison", "result": 0.18, "unit": "min⁻¹"}, {"measurement": "3MH Production", "setting": "[3]; n=36, from model", "result": 6.2, "unit": "µmol/kg/day"}, {"measurement": "M1, compartment mass", "setting": "[3]; n=36", "result": 806, "unit": "nmol/kg"}, {"measurement": "M2, compartment mass", "setting": "[3]; n=36", "result": 2106, "unit": "nmol/kg"}, {"measurement": "M3, compartment mass", "setting": "[3]; n=36", "result": 7803, "unit": "nmol/kg"}, {"measurement": "R01 mass transfer rate", "setting": "[3]; n=36", "result": 4.2, "unit": "nmol/kg/min"}, {"measurement": "R12 mass transfer rate", "setting": "[3]; n=36", "result": 107, "unit": "nmol/kg/min"}, {"measurement": "R21 mass transfer rate", "setting": "[3]; n=36", "result": 103, "unit": "nmol/kg/min"}, {"measurement": "R23 mass transfer rate", "setting": "[3]; n=36", "result": 9.6, "unit": "nmol/kg/min"}, {"measurement": "R32 mass transfer rate", "setting": "[3]; n=36", "result": 5.4, "unit": "nmol/kg/min"}, {"measurement": "L0,1 fractional transfer rate", "setting": "[3]; number 39", "result": ".006 min⁻¹"}, {"measurement": "L1,2 fractional transfer rate", "setting": "[3]; number 39", "result": ".06 min⁻¹"}, {"measurement": "L2,1 fractional transfer rate", "setting": "[3]; number 39", "result": ".18 min⁻¹"}, {"measurement": "L2,3 fractional transfer rate", "setting": "[3]; number 39", "result": ".002 min⁻¹"}, {"measurement": "L3,2 fractional transfer rate", "setting": "[3]; number 39", "result": ".003 min⁻¹"}, {"measurement": "Urinary 3MH loss", "setting": "[3]; number 39", "result": "100 % of total"}, {"measurement": "3MH Production", "setting": "[4]; n=36, from model", "result": 10.1, "unit": "µmol/kg/day"}, {"measurement": "M1, compartment mass", "setting": "[4]; n=36", "result": 4693, "unit": "nmol/kg"}, {"measurement": "M2, compartment mass", "setting": "[4]; n=36", "result": 11634, "unit": "nmol/kg"}, {"measurement": "M3, compartment mass", "setting": "[4]; n=36", "result": 16494, "unit": "nmol/kg"}, {"measurement": "R01 mass transfer rate", "setting": "[4]; n=36", "result": 1.4, "unit": "nmol/kg/min"}, {"measurement": "R03 mass transfer rate", "setting": "[4]; n=36", "result": 5.7, "unit": "nmol/kg/min"}, {"measurement": "R12 mass transfer rate", "setting": "[4]; n=36", "result": 930, "unit": "nmol/kg/min"}, {"measurement": "R21 mass transfer rate", "setting": "[4]; n=36", "result": 928, "unit": "nmol/kg/min"}, {"measurement": "R23 mass transfer rate", "setting": "[4]; n=36", "result": 80, "unit": "nmol/kg/min"}, {"measurement": "R32 mass transfer rate", "setting": "[4]; n=36", "result": 84, "unit": "nmol/kg/min"}, {"measurement": "L0,1 fractional transfer rate", "setting": "[4]; number 40", "result": ".0003 min⁻¹"}, {"measurement": "L0,3 fractional transfer rate", "setting": "[4]; number 40", "result": ".0004 min⁻¹"}, {"measurement": "L1,2 fractional transfer rate", "setting": "[4]; number 40", "result": ".08 min⁻¹"}, {"measurement": "L2,1 fractional transfer rate", "setting": "[4]; number 40", "result": ".21 min⁻¹"}, {"measurement": "L2,3 fractional transfer rate", "setting": "[4]; number 40", "result": ".005 min⁻¹"}, {"measurement": "L3,2 fractional transfer rate", "setting": "[4]; number 40", "result": ".007 min⁻¹"}, {"measurement": "Urinary 3MH loss", "setting": "[4]; number 40", "result": "17 % of total"}, {"measurement": "Urinary excretion of total daily 3-methylhistidine produced", "setting": "[4]", "result": 15, "unit": "%"}, {"measurement": "3MH Production", "setting": "[5]; n=5, from model", "result": 12, "unit": "µmol/kg/day"}, {"measurement": "M1, compartment mass", "setting": "[5]; n=5", "result": 3227, "unit": "nmol/kg"}, {"measurement": "M2, compartment mass", "setting": "[5]; n=5", "result": 7973, "unit": "nmol/kg"}, {"measurement": "M3, compartment mass", "setting": "[5]; n=5", "result": 9261, "unit": "nmol/kg"}, {"measurement": "R01 mass transfer rate", "setting": "[5]; n=5", "result": 9, "unit": "nmol/kg/min"}, {"measurement": "R12 mass transfer rate", "setting": "[5]; n=5", "result": 329, "unit": "nmol/kg/min"}, {"measurement": "R21 mass transfer rate", "setting": "[5]; n=5", "result": 319, "unit": "nmol/kg/min"}, {"measurement": "R23 mass transfer rate", "setting": "[5]; n=5", "result": 56, "unit": "nmol/kg/min"}, {"measurement": "R32 mass transfer rate", "setting": "[5]; n=5", "result": 56, "unit": "nmol/kg/min"}, {"measurement": "L0,1 fractional transfer rate", "setting": "[5]; number 5", "result": ".02 min⁻¹"}, {"measurement": "L1,2 fractional transfer rate", "setting": "[5]; number 5", "result": ".06 min⁻¹"}, {"measurement": "L2,1 fractional transfer rate", "setting": "[5]; number 5", "result": ".11 min⁻¹"}, {"measurement": "L2,3 fractional transfer rate", "setting": "[5]; number 5", "result": ".008 min⁻¹"}, {"measurement": "L3,2 fractional transfer rate", "setting": "[5]; number 5", "result": ".006 min⁻¹"}, {"measurement": "Urinary 3MH loss", "setting": "[5]; number 5", "result": "100 % of total"}, {"measurement": "Urinary excretion", "setting": "[6]", "result": "quantitatively excreted in the urine"}, {"measurement": "3-methylhistidine excreted in urine", "setting": "[7]", "result": "approximately 15%"}, {"measurement": "Urinary excretion", "setting": "[7]; retained in muscle as balenine", "result": "not quantitatively excreted in urine"}, {"measurement": "Urinary excretion", "setting": "[8]; pigs, retained in muscle as balenine", "result": "not quantitatively excreted in urine"}, {"measurement": "3-methylhistidine excreted into urine", "setting": "[8]; swine, of 3-methylhistidine from muscle metabolism", "result": "less than 2%"}, {"measurement": "Urinary excretion", "setting": "[9]", "result": "quantitatively excreted in the urine"}, {"measurement": "Contribution of skin and intestine to 3-methylhistidine excreted per day in urine", "setting": "[10]; adult rat, Millward and Bates", "result": 17, "unit": "%"}, {"measurement": "Contribution of gastrointestinal tract to 3-methylhistidine excreted", "setting": "[10]; [11]", "result": 10, "unit": "%"}, {"measurement": "Contribution of skeletal muscle to 3-methylhistidine excreted", "setting": "[10]; [11]", "result": 25, "unit": "%"}, {"measurement": "Contribution of skin to 3-methylhistidine excreted", "setting": "[10]; [11]", "result": 7, "unit": "%"}, {"measurement": "Reutilization for protein synthesis", "setting": "[10]; no specific tRNA", "result": "not reutilized for protein synthesis"}, {"measurement": "Share of total bound 3-methylhistidine in skeletal muscle", "setting": "[10]; rat organs, Haverberg et al., skin and intestine not assessed", "result": 98, "unit": "%"}, {"measurement": "Urinary excretion", "setting": "[10]; rat", "result": "quantitatively excreted in the urine"}, {"measurement": "Contribution of small intestine to 24-hour urinary excretion", "setting": "[10]; rats, duodenoileostomy", "result": "did not make a significant contribution"}]}
